Consider 5 compounds from ChEMBL document CHEMBL1124561, “Synthesis of acyclonucleoside hydroxamic acids as inhibitors of ribonucleotide reductase” (J Med Chem, 1989).

Several values for one entry are separate records, joined by “and”; a condition that tells them apart may be missing. Equal entries are not always repeated.

The subject of experiment [1] is HeLa. Briefly: Percent inhibition of growth of human cervical carcinoma (HeLa) cells in culture at 50 micro g/mL of the compound. The class given is functional.
Experiment [2] has as its system HeLa. Briefly: Percent inhibition of growth of human cervical carcinoma (HeLa) cells in culture at 5 micro g/mL of the compound. The class given is functional.
In experiment [3] the test system is HeLa. The experiment is described as follows: Percent inhibition of growth of human cervical carcinoma (HeLa) cells in culture at 10 micro g/mL of the compound. Format: functional.
Experiment [4] in a line: Inhibition against cytidine diphosphate reductase activity in calf thymus. Format: tissue-based, Bos taurus.
Experiment [5] relates to HeLa. Briefly: Percent inhibition of growth of human cervical carcinoma (HeLa) cells in culture at 25 micro g/mL of the compound. The class given is functional.
The subject of experiment [6] is HeLa. The experiment is described as follows: Percent inhibition of growth of human cervical carcinoma (HeLa) cells in culture at 2.5 micro g/mL of the compound. The class given is functional.
Experiment [7] relates to HeLa. Briefly: Percent inhibition of growth of human cervical carcinoma (HeLa) cells in culture at 1 micro g/mL of the compound. Format: functional.
For experiment [8], the system named is HeLa. Briefly: Percent inhibition of growth of human cervical carcinoma (HeLa) cells in culture at 0.1 micro g/mL of the compound. The class given is functional.
Experiment [9] has as its system HeLa. The experiment is described as follows: Percent inhibition of growth of human cervical carcinoma (HeLa) cells in culture at 200 micro g/mL of the compound. The class given is functional.
For experiment [10], the system named is HeLa. The experiment is described as follows: Percent inhibition of growth of human cervical carcinoma (HeLa) cells in culture at 100 micro g/mL of the compound. Format: functional.

As usually defined, the Inhibition is the percentage by which the read-out fell short of the control. A high value points to a response far below the control. In general, IC50 refers to the concentration at which inhibition is half-maximal. A high value points to lower potency. Take `O=C(NO)C(OCCO)n1cc(F)c(=O)[nH]c1=O` (centres undefined): the Inhibition with HeLa [1] came out at 80%; in the experiment with HeLa [2] it was 40%; in the experiment with HeLa [3] it was 66%; in the experiment with HeLa [5] it was 75%; in the experiment with HeLa [6], 16.5%. In experiment [4], this compound came in with an IC50 of 1400 µM.
Turning to `O=c1[nH]cc(F)c(=O)[nH]1` [FLUOROURACIL], the Inhibition with HeLa [7] was 55%; in the experiment on HeLa [1] it was 90%; in the experiment with HeLa [2], 34.3%; in the experiment on HeLa [8] it was 19%; with HeLa [3], 63.5% and 70%; in the experiment on HeLa [5], 77%.
Turning to `NC(=O)NO` [HYDROXYUREA], the Inhibition in the experiment on HeLa [1] amounted to 90%; in the experiment with HeLa [2], 34.3%; in the experiment with HeLa [3] it was 63.5%; with HeLa [5], 77%. For the same compound, in experiment [4], it took 500 µM to reach half-maximal inhibition (IC50).
As to `Nc1ccn(C(OCCO)C(=O)NO)c(=O)n1` (centres undefined), the midpoint of inhibition in experiment [4], the IC50, lay at 4900 µM. Moreover, in the experiment with HeLa [9], the Inhibition is on record as 0%.
Regarding `O=C(NO)C(OCCO)n1ccc(=O)[nH]c1=O` (centres undefined), the Inhibition turned out to be 13% in the experiment with HeLa [1], 19% with HeLa [5], 47% in the experiment with HeLa [10] and 97% in the experiment with HeLa [9]. In experiment [4], this compound had an IC50 of 2200 µM.
